Assay results taken from PubChem BioAssay AID248 (DTP/NCI, 2004).
Inconclusive results and toxic doses are left out. Rule as the data show it: active = T/C of 150% or more; inactive = T/C below 125%.

System: L1210 leukemia ip in BDF1 mice, survival T/C
Assay: NCI In Vivo Anticancer Drug Screen. Data for tumor model L1210 Leukemia (intraperitoneal) in B6D2F1 (BDF1) mice
Details: endpoint: mean survival time, higher = longer survival
Procedure, shortened: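 Each compound was tested against a transplantable tumor grown in mice. The endpoint was survival, with treated animals benchmarked against vehicle controls as a simple ratio.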

[1] = dose: 100.0 mg/kg/injection, schedule: Q04DX003 (ip), vehicle: saline with Tween-80
[2] = dose: 200.0 mg/kg/injection, schedule: Q04DX003 (ip), vehicle: saline with Tween-80
[3] = dose: 400.0 mg/kg/injection, schedule: Q04DX003 (ip), vehicle: saline with Tween-80
[4] = dose: 100.0 mg/kg/injection, schedule: Q04DX003 (ip), vehicle: saline
[5] = dose: 200.0 mg/kg/injection, schedule: Q04DX003 (ip), vehicle: saline
[6] = dose: 400.0 mg/kg/injection, schedule: Q04DX003 (ip), vehicle: saline

Measured: T/C

CC(C)(c1ccc(O)cc1)c1ccc(O)cc1
inactive: [1] 96 % of control | [2] 87 % of control | [3] 91 % of control

COc1nc(-c2ccccc2)cn[n+]1C
inactive: dose: 33.0 mg/kg/injection, schedule: Q01DX001 (ip), vehicle: saline with Tween-80 103 % of control | dose: 50.0 mg/kg/injection, schedule: Q01DX001 (ip), vehicle: saline with Tween-80 107 % of control | dose: 75.0 mg/kg/injection, schedule: Q01DX001 (ip), vehicle: saline with Tween-80 113 % of control

O=S(=O)(C1CC1c1ccccc1)N(c1ccccc1)c1ccccc1 (configuration not stated)
inactive: dose: 100.0 mg/kg/injection, schedule: Q01DX001 (ip), vehicle: Klucel (hydroxypropylcellulose) (HPC) 94 % of control | dose: 100.0 mg/kg/injection, schedule: Q04DX003 (ip), vehicle: Klucel (hydroxypropylcellulose) (HPC) 93 % of control | dose: 200.0 mg/kg/injection, schedule: Q01DX001 (ip), vehicle: Klucel (hydroxypropylcellulose) (HPC) 100 % of control | dose: 200.0 mg/kg/injection, schedule: Q04DX003 (ip), vehicle: Klucel (hydroxypropylcellulose) (HPC) 93 % of control | dose: 400.0 mg/kg/injection, schedule: Q01DX001 (ip), vehicle: Klucel (hydroxypropylcellulose) (HPC) 97 % of control | dose: 400.0 mg/kg/injection, schedule: Q04DX003 (ip), vehicle: Klucel (hydroxypropylcellulose) (HPC) 93 % of control

CCc1cc(C(C)(C)C)c(O)c(C(C)(C)C)c1
inactive: dose: 100.0 mg/kg/injection, schedule: Q01DX001 (ip), vehicle: saline with Tween-80 95 % of control | dose: 200.0 mg/kg/injection, schedule: Q01DX001 (ip), vehicle: saline with Tween-80 102 % of control | dose: 400.0 mg/kg/injection, schedule: Q01DX001 (ip), vehicle: saline with Tween-80 95 % of control

O=NN(CCCl)C(=O)Nc1ccc2c(c1)Cc1ccccc1-2
active: dose: 10.0 mg/kg/injection, schedule: Q01DX009 (ip), vehicle: other 156 % of control | dose: 20.0 mg/kg/injection, schedule: Q01DX009 (ip), vehicle: other 167 % of control | dose: 44.0 mg/kg/injection, schedule: Q01DX009 (ip), vehicle: carboxymethylcellulose (CMC) 164 % of control | dose: 66.0 mg/kg/injection, schedule: Q01DX009 (ip), vehicle: carboxymethylcellulose (CMC) 208 % of control | dose: 100.0 mg/kg/injection, schedule: Q01DX009 (ip), vehicle: carboxymethylcellulose (CMC) 175 % of control
inactive: dose: 40.0 mg/kg/injection, schedule: Q01DX009 (ip), vehicle: other 113 % of control | dose: 150.0 mg/kg/injection, schedule: Q01DX009 (ip), vehicle: carboxymethylcellulose (CMC) 96 % of control | dose: 300.0 mg/kg/injection, schedule: Q01DX001 (ip), vehicle: carboxymethylcellulose (CMC) 102 % of control

N=C(N)c1ccc(OCCCCOc2ccc(N)cc2Cl)cc1
inactive: dose: 50.0 mg/kg/injection, schedule: Q01DX009 (ip), vehicle: Klucel (hydroxypropylcellulose) (HPC) 111 % of control | dose: 100.0 mg/kg/injection, schedule: Q01DX009 (ip), vehicle: Klucel (hydroxypropylcellulose) (HPC) 97 % of control

O=C(O)C(Br)C(Br)C(=O)O.[Ag] (configuration not stated)
inactive: dose: 9.38 mg/kg/injection, schedule: Q01DX001 (ip), vehicle: other 94 % of control | dose: 18.75 mg/kg/injection, schedule: Q01DX001 (ip), vehicle: other 94 % of control

O=S(=O)(C/C(=N\O)c1ccccc1)C/C(=N/O)c1ccccc1
inactive: [4] 104 % of control | [5] 98 % of control | [6] 100 % of control

CC(=O)OC1CCP(C)(=O)C1 (configuration not stated)
inactive: [4] 98 % of control | [5] 96 % of control | [6] 93 % of control

CSC(=NCc1ccccc1)NC1CCCCC1
inactive: dose: 12.5 mg/kg/injection, schedule: Q04DX002 (ip), vehicle: Klucel (hydroxypropylcellulose) (HPC) 100 % of control | dose: 25.0 mg/kg/injection, schedule: Q04DX002 (ip), vehicle: Klucel (hydroxypropylcellulose) (HPC) 107 % of control | dose: 50.0 mg/kg/injection, schedule: Q04DX002 (ip), vehicle: Klucel (hydroxypropylcellulose) (HPC) 107 % of control

O=C(c1ccc(Br)cc1)C1SC2(C(=O)c3ccc(Br)cc3)SC(C(=O)c3ccc(Br)cc3)C(C(=O)c3ccc(Br)cc3)SC2(C(=O)c2ccc(Br)cc2)SC1C(=O)c1ccc(Br)cc1 (configuration not stated)
inactive: dose: 75.0 mg/kg/injection, schedule: Q01DX001 (ip), vehicle: saline 100 % of control | dose: 150.0 mg/kg/injection, schedule: Q01DX001 (ip), vehicle: saline 94 % of control | dose: 300.0 mg/kg/injection, schedule: Q01DX001 (ip), vehicle: saline 94 % of control

CCNC(C)(C)C(SS(=O)(=O)O)c1ccc(Cl)s1 (configuration not stated)
inactive: dose: 100.0 mg/kg/injection, schedule: Q01DX009 (ip), vehicle: saline with Tween-80 96 % of control | [1] 102 % of control | dose: 200.0 mg/kg/injection, schedule: Q01DX009 (ip), vehicle: saline with Tween-80 90 % of control | [2] 96 % of control | [3] 92 % of control

CCCCCCCC/C=C\CCCCCCCC(=O)OCCCCCCCCCCC
inactive: dose: 100.0 mg/kg/injection, schedule: Q01DX009 (ip), vehicle: other 93 % of control | dose: 200.0 mg/kg/injection, schedule: Q01DX009 (ip), vehicle: other 94 % of control | dose: 400.0 mg/kg/injection, schedule: Q01DX009 (ip), vehicle: other 100 % of control
